Laboratory results: EP1977645A1, “Insecticidal derivates of substituted phenylalkylamines” (priority 2007, dated 2008)

Assay: log P determination (acidic)
Type: physicochemical

Compound: CNC(=S)N1CCO/C1=N\[C@@H](C)c1ccccc1F [compound 3, (2Z)-2-{[(1S)-1-(2-fluorophenyl)ethyl]imino}-N-methyl-1,3-oxazolidine-3-carbothioamide]
- logP: 3.18
